Reference: PMC12561453, “Synthesis and Structure–Activity Relationship Study of 2-(amino)quinazolin-4(3H)-one Derivatives as Potential Inhibitors of Methicillin-Resistant Staphylococcus aureus (MRSA)” (Antibiotics, 2025)
pIC50: −log10 of the molar value. Values after ≈ are worked out from the molar mass of the structure shown. Like-named read-outs stand apart in the source and are kept apart here.

Experiments:
CYP3A4 = molecular target: T1, CYP3A4 (Homo sapiens, UniProt P08684); assay: CYP inhibition in human liver microsomes, 3A4; type: in vitro ADME
T1 construct: from tissue; host or cells: human liver microsomes
T1 sequence (P08684 whole entry): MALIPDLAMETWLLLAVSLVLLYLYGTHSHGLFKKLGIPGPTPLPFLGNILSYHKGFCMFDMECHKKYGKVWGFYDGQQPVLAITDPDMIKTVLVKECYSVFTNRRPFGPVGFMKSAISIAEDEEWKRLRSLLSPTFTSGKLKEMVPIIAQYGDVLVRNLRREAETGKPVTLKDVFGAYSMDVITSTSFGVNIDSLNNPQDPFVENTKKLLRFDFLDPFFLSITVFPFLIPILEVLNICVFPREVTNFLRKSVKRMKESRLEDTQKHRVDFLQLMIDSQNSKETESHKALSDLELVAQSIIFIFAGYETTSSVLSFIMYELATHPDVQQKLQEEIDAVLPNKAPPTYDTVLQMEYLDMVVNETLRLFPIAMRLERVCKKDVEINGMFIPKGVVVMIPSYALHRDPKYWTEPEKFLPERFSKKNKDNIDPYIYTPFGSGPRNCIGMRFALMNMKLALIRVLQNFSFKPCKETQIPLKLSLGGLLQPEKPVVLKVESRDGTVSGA
Experimental: (§1) Table S2. Result of microsomal stability, plasma protein binding rate, and CYP inhibition of 6l and 6y
(§2) Compound MSa PPBrat human rat human 1A2 2C9 2C19 2D6 3A4
(§3) a % of remaining after 30 min. b plasma protein binding rate (%) at 5 μM concentrations. c % of CYP
(§4) inhibition in human liver microsomes at 10 μM concentrations. […]

[1] = Cytotoxicity in VERO cells; type: cell-based; details: African green monkey, VERO cells (kidney cell line)
Experimental: (§5) Table S1. Results of hERG binding assay and cytotoxicity of 6l and 6y
(§6) Compound hERGa CytotoxicityVERO HFL-1 L929 NIH 3T3 CHO-K1
(§7) a % inhibition at 10 μM concentrations. b IC50 values in various mammalian cell lines. […]

CYP2C19 = molecular target: T2, CYP2C19 (Homo sapiens, UniProt P33261); assay: CYP inhibition in human liver microsomes, 2C19; type: in vitro ADME
T2 construct: from tissue; host or cells: human liver microsomes
T2 sequence (P33261 whole entry): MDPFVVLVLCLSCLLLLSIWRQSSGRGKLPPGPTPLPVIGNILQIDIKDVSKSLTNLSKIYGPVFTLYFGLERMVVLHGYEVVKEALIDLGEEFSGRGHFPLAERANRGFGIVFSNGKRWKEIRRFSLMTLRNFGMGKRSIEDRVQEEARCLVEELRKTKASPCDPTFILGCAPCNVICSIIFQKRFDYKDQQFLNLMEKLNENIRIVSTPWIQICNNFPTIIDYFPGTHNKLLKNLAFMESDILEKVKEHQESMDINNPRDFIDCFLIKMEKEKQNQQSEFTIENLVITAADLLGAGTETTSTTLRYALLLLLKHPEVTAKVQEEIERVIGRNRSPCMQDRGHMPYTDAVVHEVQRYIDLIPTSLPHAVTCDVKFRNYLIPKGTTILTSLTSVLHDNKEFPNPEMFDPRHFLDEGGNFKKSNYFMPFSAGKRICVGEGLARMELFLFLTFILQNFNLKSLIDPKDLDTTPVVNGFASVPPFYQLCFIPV
Experimental: as §1, §2, §3, §4

HepG2 cells = assay: In vitro cytotoxicity, HepG2 viability (resazurin); type: cell-based, human; details: HepG2 cells, 24 h, resazurin, read-out: HepG2 IC50
Experimental: The in vitro cytotoxicity of the compounds was evaluated by measuring the viability of HepG2 cells, a human liver cell line, following treatment in a dose–response manner, as previously described. […] The efficacy window was calculated as the ratio of IC50 in HepG2 cells to MIC50 against JE2.
To test cytotoxicity with compounds, the human liver cell line HepG2 (ATCC #HB-8065) was used for the assay. HepG2 was cultured in DMEM with 10% fetal bovine serum (FBS) in a 96-well microplate at 37 °C and 5% CO2. HepG2 cells were seeded at a final density of 5 × 10^4 cells/well, and DMEM-containing diluted compounds were added and incubated on the plates at 37 °C in 5% CO2 for 24 h. After that, resazurin (final concentration, 0.1 mg/mL) was added to each well and incubated on the plates at 37 °C in 5% CO2 for 2 h. To detect the fluorescence at 530 nm excitation and 590 nm emission, an Ensight multimode plate reader was used (Revvity, Waltham, MA, USA).

[2] = Cytotoxicity in HFL-1 cells; type: cell-based; details: human, HFL-1 cells (embryonic lung cell line)
Experimental: as §5, §6, §7

[3] = test system: S. aureus USA300 JE2 expressing GFP in H460 cells; assay: microbe, parasite or virus in culture; type: cell-based, Staphylococcus aureus; details: for MIC50: Staphylococcus aureus, USA300, 24 h, read-out: H460 Assay MIC50 (MIC50 ex vivo)
Excerpt: Staphylococcus aureus, including MRSA, can invade host cells and replicate intracellularly, which complicates treatment with current therapies. To evaluate the intracellular antibacterial activities of the selected compounds, the fifteen compounds tested for cytotoxicity were further assessed using a cell infection model based on H460 human lung epithelial cells, which mimic MRSA-mediated pneumonia. H460 cells were infected with the USA300 JE2 expressing green fluorescent protein (GFP) and subsequently treated with the compounds in a dose–response manner, along with three reference antibiotics: vancomycin, linezolid, and erythromycin. After 24 h of incubation, bacterial loads were quantified by measuring GFP fluorescence in each well. MIC50 values determined in the H460 infection model (MIC50 ex vivo) were generally higher than those obtained from the in vitro tests, likely due to either limited compound penetration into host cells or reduced antibacterial effect of the compounds against intracellular bacteria (Figure 3, Table 2). […] These findings underscore the potential of compound 6y as a promising lead for further development as a novel antistaphylococcal agent.
To see the ex vivo antimicrobial activity of the compound, the human lung carcinoma cell line H460 (ATCC #HTB-177) was used. The H460 cells were cultured in RPMI 1640 medium with 10% fetal bovine serum (FBS) and in a 96-well microplate at 37 °C and 5% CO2. Cell lines were cultured for 2 days, until they reached full confluence in the well. S. aureus (USA300-containing and pCM29-encoding GFP) was cultured in CAMHB with 10 µg/mL of chloramphenicol, and bacterial cells were harvested. After washing the bacterial cells with phosphate-buffered saline (PBS) and suspending them in RPMI, infected H460 cells with S. aureus (1 × 10^7 CFU) and incubated them for 2.5 h. Samples were washed three times with PBS. Then, cells were treated with gentamicin (50 µg/mL of gentamicin in RPMI) and incubated for 1 h. Samples were washed with PBS, RPMI-containing diluted compounds were added, and then they were incubated at 37 °C in 5% CO2 for 24 h. To detect the Green fluorescent protein (GFP) signal, an Ensight multimode plate reader and Opera Phenix Plus (Revvity, Waltham, MA, USA) were used.
Ex vivo infection model images were generated using the Opera Phenix Plus high-content imaging system. Images were obtained by a confocal microscope with a 20× water objective lens. To detect the bacteria fluorescence signal (GFP), the Alexa 488 channel (488 nm laser/500–550 filter, Thermo Fisher Scientific, Waltham, MA, USA) was used, and the brightfield channel was used for H460 cell images.
Figure 3 Antibacterial activities of 2-(amino)quinazolin-4(3H)-one derivatives in the H460 infection model. H460 cells were infected with S. aureus USA300 JE strain expressing GFP, followed by treatment with serial dilutions of 2-(amino)quinazolin-4(3H)-one derivatives. After incubation at 37 °C for 24 h with 5% CO2, fluorescence signals of the bacteria were detected at 488 nm/510 nm using a multilabel plate reader.

| Structure (SMILES) | inhibition at 10 µM (CYP3A4) | pIC50 [1] | inhibition at 10 µM (CYP2C19) | pIC50 (HepG2 cells) | pIC50 (HepG2 cells; Homo sapiens, HepG2, 24 h) | pIC50 [2] | MIC50 [3] | distortion of H460 cell morphology (in words) ([3]; 6.25 µM, brightfield images, 24 h) | bacterial load in infected H460 cells (in words) ([3]; 6.25 µM, confocal images, 24 h) | H460 Assay MIC50 (MIC50 ex vivo) ([3]; H460 cells infected with USA300 JE2-GFP, 24 h, GFP fluorescence) |
| --- | --- | --- | --- | --- | --- | --- | --- | --- | --- | --- |
| O=c1[nH]c(Nc2cc(Cl)cc(Cl)c2)nc2cc(Cl)ccc12 [6l, 7-Chloro-2-((3,5-dichlorophenyl)amino)quinazolin-4(3H)-one] | 32.2% | 5.07 | < 1% | 4.21 | 4.21 | 5.12 | 12.1 µM (≈ 4.12 µg/mL) | – | – | – |
| O=c1[nH]c(NCc2ccc(F)c(F)c2)nc2cc(Cl)ccc12 [6y, 7-Chloro-2-((3,4-difluorobenzyl)amino)quinazolin-4(3H)-one] | 91.4% | 4.30 | 93.6% | – | 4.69 | 4.29 | 1.9 µM (≈ 0.611 µg/mL) | relatively minimal distortion of H460 cell morphology | markedly reducing the bacterial load | 1.9 µM |
